Where a name gives a salt, the structure may show the parent alone.
Columns and labels:
[1] = target: mutant G2019S LRRK2 (Homo sapiens, UniProt Q5S007, G2019S); test: LRRK2 Assay, Format 1 (Lantha Screen), G2019S mutant
From the text: All final concentrations of substrate ATP and enzyme were the same.

[2] = target: T1, GST-tagged truncated LRRK2 (Homo sapiens, UniProt Q5S007); test: LRRK2 Assay, Format 1 (Lantha Screen), WT; assay type: biochemical
T1 construct: GST-tagged truncated LRRK2 from Invitrogen (Cat # PV4874); GST; purchased Invitrogen PV4874
Procedure: LRRK2 kinase activity was measured using Lantha Screen technology from Invitrogen. GST-tagged truncated LRRK2 from Invitrogen (Cat # PV4874) was incubated with a fluorescein-labeled peptide substrate based upon ezrin/radixin/moesin (ERM), also known as LRRKtide (Invitrogen cat # PR8976A), in the presence of a dose response of compound. Upon completion, the assay was stopped and detected with a terbium labeled anti-phospho-ERM antibody (Invitrogen, cat # PR8975A). […] Aliquots (3.5 μL) of the 100% DMSO dose response were mixed with 46.5 μL water then 1 μL of this mixture was added to the 3 μL substrate mix in the 384-well plate. The kinase reaction was started with 3 μL of a working solution of LRRK2 enzyme at a concentration of 4 μg/mL. […] The reaction was allowed to progress at room temperature for two hours and then stopped with the addition of 7 μL of detection buffer (20 mM Tris pH 7.6, 0.01% NP-40, 0.02% NaN3, 6 mM EDTA with 2 nM terbium labeled anti-phospho-ERM).

[3] = Format 1, wild-type LRRK2, geometric mean of 2-4 determinations unless footnoted (a: ≥5 determinations; b: single determination; c: determined on trifluoroacetate salt)
[4] = 100 nM LRRKtide, 50 μM ATP, 1.7 μg/mL LRRK2 enzyme, two hours at room temperature

T1 sequence (Q5S007 970-2527 limits assumed): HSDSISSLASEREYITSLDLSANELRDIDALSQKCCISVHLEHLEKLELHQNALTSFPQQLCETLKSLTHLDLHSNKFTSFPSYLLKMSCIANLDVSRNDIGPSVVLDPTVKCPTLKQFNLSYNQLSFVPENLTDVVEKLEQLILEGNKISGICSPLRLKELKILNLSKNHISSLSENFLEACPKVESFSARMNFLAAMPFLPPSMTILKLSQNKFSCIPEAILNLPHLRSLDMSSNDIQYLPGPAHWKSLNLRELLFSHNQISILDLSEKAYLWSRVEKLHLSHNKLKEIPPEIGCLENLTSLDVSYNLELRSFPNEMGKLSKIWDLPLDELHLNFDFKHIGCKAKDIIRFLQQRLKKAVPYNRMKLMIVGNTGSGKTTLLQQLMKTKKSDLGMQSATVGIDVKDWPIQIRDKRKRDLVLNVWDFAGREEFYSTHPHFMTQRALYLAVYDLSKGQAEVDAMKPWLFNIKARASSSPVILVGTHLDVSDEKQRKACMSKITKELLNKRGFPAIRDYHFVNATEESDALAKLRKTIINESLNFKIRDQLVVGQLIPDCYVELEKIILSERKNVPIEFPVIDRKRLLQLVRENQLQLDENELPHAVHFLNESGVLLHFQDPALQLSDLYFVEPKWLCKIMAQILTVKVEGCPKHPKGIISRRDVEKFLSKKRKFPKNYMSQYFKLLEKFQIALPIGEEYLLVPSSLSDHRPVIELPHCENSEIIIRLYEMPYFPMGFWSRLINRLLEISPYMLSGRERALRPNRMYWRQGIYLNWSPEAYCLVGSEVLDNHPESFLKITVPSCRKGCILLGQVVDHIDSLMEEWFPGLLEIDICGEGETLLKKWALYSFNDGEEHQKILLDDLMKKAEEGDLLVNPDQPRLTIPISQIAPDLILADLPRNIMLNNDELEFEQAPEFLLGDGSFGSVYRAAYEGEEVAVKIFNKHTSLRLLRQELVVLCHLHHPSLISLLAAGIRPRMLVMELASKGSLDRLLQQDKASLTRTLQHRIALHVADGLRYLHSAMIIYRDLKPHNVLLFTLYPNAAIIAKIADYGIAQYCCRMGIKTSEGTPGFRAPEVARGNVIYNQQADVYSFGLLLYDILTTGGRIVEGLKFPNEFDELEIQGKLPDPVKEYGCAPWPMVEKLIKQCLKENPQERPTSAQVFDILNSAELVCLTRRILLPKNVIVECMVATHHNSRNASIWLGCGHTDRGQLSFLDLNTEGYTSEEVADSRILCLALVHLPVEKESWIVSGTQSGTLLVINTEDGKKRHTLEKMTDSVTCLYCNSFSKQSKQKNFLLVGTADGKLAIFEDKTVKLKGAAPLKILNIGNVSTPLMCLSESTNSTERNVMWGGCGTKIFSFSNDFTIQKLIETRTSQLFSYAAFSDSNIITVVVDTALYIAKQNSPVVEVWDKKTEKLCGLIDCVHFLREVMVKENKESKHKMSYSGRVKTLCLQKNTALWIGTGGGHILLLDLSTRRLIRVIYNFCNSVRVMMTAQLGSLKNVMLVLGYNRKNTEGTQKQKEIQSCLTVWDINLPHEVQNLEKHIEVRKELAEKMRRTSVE
Chain of mutant G2019S LRRK2 (Q5S007 970-2527 G2019S limits assumed): as the sequence (Q5S007 970-2527 limits assumed) above, with G1050S counted along it

Row | IC50 [1] [nM] | IC50 [2, 3] [nM] | IC50 [2, 4] [nM] | SMILES
1 | 93.5 | 124 | – | c1ccc2c(c1)ncc1nc(Cn3nnc4ccccc43)n(C3CCOCC3)c12 [Example 41, 2-(1H-benzotriazol-1-ylmethyl)-1-(tetrahydro-2H-pyran-4-yl)-1H-imidazo[4,5-c]quinoline]
2 | 14.4 | 39.3 | – | COc1ccc2ncc3nc(Cc4cc(C)on4)n([C@@H]4CCO[C@H](C)C4)c3c2c1 (single isomer, unassigned) [Example 1]
3 | 5.1 | 4.9 | – | Cc1cc(Cc2nc3cnc4ccc(C#N)cc4c3n2[C@@H]2CCO[C@H](C)C2)no1 [Example 3, 2-[(5-Methyl-1,2-oxazol-3-yl)methyl]-1-[(2R,4R)-2-methyltetrahydro-2H-pyran-4-yl]-1H-imidazo[4,5-c]quinoline-8-carbonitrile]
4 | 6.4 | 6.3 | – | C[C@@H]1C[C@H](n2c(CC#N)nc3cnc4ccc(Cl)cc4c32)CCO1 [Example 9, {8-Chloro-1-[(2R,4R)-2-methyltetrahydro-2H-pyran-4-yl]-1H-imidazo[4,5-c]quinolin-2-yl}acetonitrile]
5 | 1.8 | 2.8 | – | C[C@@H]1C[C@H](n2c(Cn3cncn3)nc3cnc4ccc(Cl)cc4c32)CCO1 (single isomer, unassigned) [Example 65]
6 | 2.4 | 4.5 | – | C[C@@H]1C[C@H](n2c(Cc3ccon3)nc3cnc4ccc(Br)cc4c32)CCO1 (single isomer, unassigned) [Example 12]
7 | 157 | 103 | – | Cc1cc(Cc2nc3cnc4ccccc4c3n2C2CCOCC2)no1 [Example 39, 2-[(5-methyl-1,2-oxazol-3-yl)methyl]-1-(tetrahydro-2H-pyran-4-yl)-1H-imidazo[4,5-c]quinoline]
8 | 143 | 133 | – | COc1ccc(Cc2nc3cnc4ccccc4c3n2C2CCOCC2)nc1 [Example 37, 2-[(5-methoxypyridin-2-yl)methyl]-1-(tetrahydro-2H-pyran-4-yl)-1H-imidazo[4,5-c]quinoline]
9 | 172 | 124 | – | COCc1cn(Cc2nc3cnc4ccccc4c3n2C2CCOCC2)nn1 [Example 33, 2-{[4-(methoxymethyl)-1H-1,2,3-triazol-1-yl]methyl}-1-(tetrahydro-2H-pyran-4-yl)-1H-imidazo[4,5-c]quinoline]
10 | 245 | – | 623 | COc1ccc2ncc3nc(Cc4cn5ncsc5n4)n([C@H]4CCO[C@@H](C)C4)c3c2c1 [enantiomer of Example 90, 2-(imidazo[2,1-b][1,3,4]thiadiazol-6-ylmethyl)-8-methoxy-1-[(2S,4S)-2-methyltetrahydro-2H-pyran-4-yl]-1H-imidazo[4,5-c]quinoline]
11 | 52 | 176 | – | C[C@@H]1C[C@H](n2c(Cc3ccon3)nc3cnc4ccc(Br)cc4c32)C[C@H](C)O1 [Example 59, 8-bromo-1-[(2R,4r,6S)-2,6-dimethyltetrahydro-2H-pyran-4-yl]-2-(1,2-oxazol-3-ylmethyl)-1H-imidazo[4,5-c]quinoline]
12 | 170 | 156 | – | CC1(C)CC(n2c(Cc3cscn3)nc3cnc4ccccc4c32)CCO1 (centres unmarked) [Example 72, 1-(2,2-dimethyltetrahydro-2H-pyran-4-yl)-2-(1,3-thiazol-4-ylmethyl)-1H-imidazo[4,5-c]quinoline, trifluoroacetate salt]
13 | 146 | 120 | – | c1ccc2c(c1)ncc1nc(Cn3cncn3)n(C3CCOCC3)c12 [Example 30, 1-(tetrahydro-2H-pyran-4-yl)-2-(1H-1,2,4-triazol-1-ylmethyl)-1H-imidazo[4,5-c]quinoline]
14 | 155 | 162 | – | F[C@H]1CC[C@@H](n2c(Cn3cncn3)nc3cnc4ccccc4c32)C1 [Example 26, 1-[(1R,3S)-3-fluorocyclopentyl]-2-(1H-1,2,4-triazol-1-ylmethyl)-1H-imidazo[4,5-c]quinoline]
15 | 7.5 | 18 | – | COc1ccc2ncc3nc(Cn4cc(C)nn4)n([C@@H]4CCO[C@H](C)C4)c3c2c1 [Example 88, 8-methoxy-1-[(2R,4R)-2-methyltetrahydro-2H-pyran-4-yl]-2-[(4-methyl-1H-1,2,3-triazol-1-yl)methyl]-1H-imidazo[4,5-c]quinoline]
16 | 250 | 153 | – | c1ccc2c(c1)ncc1nc(Cc3ccon3)n(C3CCOCC3)c12 [Example 18, 2-(1,2-oxazol-3-ylmethyl)-1-(tetrahydro-2H-pyran-4-yl)-1H-imidazo[4,5-c]quinoline]

Row | IC50 [1] [nM] | IC50 [2, 3] [nM] | IC50 [2, 4] [nM] | SMILES
17 | 110 | 119 | – | FC(F)(F)c1cnn(Cc2nc3cnc4ccccc4c3n2C2CCOCC2)c1 [Example 43, 1-(tetrahydro-2H-pyran-4-yl)-2-{[4-(trifluoromethyl)-1H-pyrazol-1-yl]methyl}-1H-imidazo[4,5-c]quinoline]
18 | 257 | 187 | – | Cc1nc2cnc3ccccc3c2n1[C@H]1CCO[C@@H](C)C1 (racemic) [Example 15, 2-methyl-1-(cis-2-methyltetrahydro-2H-pyran-4-yl)-1H-imidazo[4,5-c]quinoline]
19 | 196 | – | 382 | C[C@H]1C[C@@H](n2c(Cc3cscn3)nc3cnc4ccc(C#N)cc4c32)CCO1 [enantiomer of Example 57, 1-[(2S,4S)-2-methyltetrahydro-2H-pyran-4-yl]-2-(1,3-thiazol-4-ylmethyl)-1H-imidazo[4,5-c]quinoline-8-carbonitrile]
20 | 226 | – | 510 | C[C@H]1C[C@@H](n2c(Cc3ccon3)nc3cnc4ccc(Br)cc4c32)CCO1 (single isomer, unassigned) [enantiomer of Example 12]
21 | 168 | 172 | – | Cc1nc2cnc3ccc(Br)cc3c2n1[C@H]1CC[C@@H](F)C1 [Example 6, 8-Bromo-1-[(1S,3R)-3-fluorocyclopentyl]-2-methyl-1H-imidazo[4,5-c]quinoline]
22 | 121 | 159 | – | CC1(C)CC(n2c(Cn3cc(C(F)(F)F)cn3)nc3cnc4ccc(F)cc4c32)CCO1 (centres unmarked) [Example 81, 1-(2,2-dimethyltetrahydro-2H-pyran-4-yl)-8-fluoro-2-{[4-(trifluoromethyl)-1H-pyrazol-1-yl]methyl}-1H-imidazo[4,5-c]quinoline, trifluoroacetate salt]
23 | 258 | – | 534 | C[C@H]1C[C@@H](n2c(Cc3ccon3)nc3cnc4ccc(C#N)cc4c32)CCO1 [enantiomer of Example 22, 1-[(2 S,4S)-2-methyltetrahydro-2H-pyran-4-yl]-2-(1,2-oxazol-3-ylmethyl)-1H-imidazo[4,5-c]quinoline-8-carbonitrile]
24 | 55.9 | 51.2 | – | c1ccc2c(c1)ncc1nc(Cn3cc(C4CC4)nn3)n(C3CCOCC3)c12 [Example 42, 2-[(4-cyclopropyl-1H-1,2,3-triazol-1-yl)methyl]-1-(tetrahydro-2H-pyran-4-yl)-1H-imidazo[4,5-c]quinoline]
25 | 632 | – | 853 | C[C@H]1C[C@@H](n2c(Cc3ccon3)nc3cnc4cccnc4c32)CCO1 [enantiomer of Example 68, 1-[(2 S,4S)-2-methyltetrahydro-2H-pyran-4-yl]-2-(1,2-oxazol-3-ylmethyl)-1H-imidazo[4,5-c][1,5]naphthyridine]
26 | 327 | – | 353 | Cc1cc(Cc2nc3cnc4ccc(Cl)cc4c3n2C2CCOC(CC#N)C2)no1 (single isomer, unassigned; ent-2) [enantiomer of Example 134, [cis-4-{8-chloro-2-[(5-methyl-1,2-oxazol-3-yl)methyl]-1H-imidazo[4,5-c]quinolin-1-yl}tetrahydro-2H-pyran-2-yl]acetonitrile, ENT-2]
27 | 134 | – | 267 | C[C@@H]1C[C@@H](n2c(Cc3ccon3)nc3cnc4ccc(C#N)cc4c32)CCO1 [enantiomer of Example 24, 1-[(2R,4S)-2-methyltetrahydro-2H-pyran-4-yl]-2-(1,2-oxazol-3-ylmethyl)-1H-imidazo[4,5-c]quinoline-8-carbonitrile]
28 | 81.2 | 152 | – | O[C@@H]1CCC[C@@H](n2c(Cc3ccon3)nc3cnc4ccccc4c32)C1 (racemic) [Example 49, trans-3-[2-(1,2-oxazol-3-ylmethyl)-1H-imidazo[4,5-c]quinolin-1-yl]cyclohexanol]
29 | 12.1 | 16.1 | – | Clc1ccc2ncc3nc(Cc4ccon4)n(C4CCOCC4)c3c2c1 [Example 63, 8-chloro-2-(1,2-oxazol-3-ylmethyl)-1-(tetrahydro-2H-pyran-4-yl)-1H-imidazo[4,5-c]quinoline, formate salt]
30 | 3.9 | 5.2 | – | C[C@@H]1C[C@H](n2c(Cc3ccon3)nc3cnc4ccc(C#N)cc4c32)CCO1 [Example 22, 1-[(2R,4R)-2-methyltetrahydro-2H-pyran-4-yl]-2-(1,2-oxazol-3-ylmethyl)-1H-imidazo[4,5-c]quinoline-8-carbonitrile]
31 | 478 | 1260 | – | COc1ccc2ncc3nc(Cc4cc(C)on4)n([C@H]4CCO[C@@H](C)C4)c3c2c1 (single isomer, unassigned) [Example C12]
